The values that follow come from patent US20250034153A1, “TRIAZOLOPYRIMIDINES AS A2A / A2B INHIBITORS” (Incyte Corporation, priority 2019, published 2025).

Assay [1] addresses human adenosine A2B receptor (Homo sapiens (Human), UniProt P29275). Briefly: Adenosine A2B receptor cyclic AMP GS assay (Example B). It counts as cell-based. Conditions: HEK-293 cells expressing human A2B, agonist NECA 12 nM, cAMP accumulation (FRET); read-out: A2B_cAMP_EC50. As for the experimental part:
Example B. Adenosine A2B Receptor Cyclic AMP GS Assay
Stably transfected HEK-293 cells expressing the human adenosine A2B receptor (Perkin Elmer) were maintained in MEM culture medium with 10% FBS and 100 μg/ml Geneticin (Life Technologies). 18 to 24 hours prior to assay, geneticin was removed from culture. The cisbio cAMP-GS Dynamic kit utilizing the FRET (Fluorescence Resonance Energy Transfer) technology was used to measure cAMP accumulation in the cells. Compounds of the present disclosure at an appropriate concentration were mixed with 10000 cells/well in white 96 well half area plates (Perkin Elmer) for 30 min at RT gently shaking. Agonist, NECA (R&D Technologies) at 12 nM was added to each well for 60 min at RT gently shaking. Detection reagents, d2-labeled cAMP (acceptor) and anti-cAMP cryptate (donor) were added to each well for 60 min at RT gently shaking. Plates were read on Pherastar (BMG Labtech), fluorescence ratio 665/620 was calculated and EC50 determination was performed by fitting the curve of percent of control versus the log of the compound concentration using GraphPad Prism.
(Changes in cAMP serve as a functional read-out for many G protein-coupled receptors.)

Another assay addresses Adenosine A2A (Homo sapiens (Human), UniProt P29274). Briefly: A2A Tag-lite HTRF assay (Example C). As to conditions: Tag-lite Adenosine A2A labeled cells, Red antagonist fluorescent ligand 12.5 nM, one-site competitive binding; read-out: A2A_Ki. As for the experimental part: Example C. A2A Tag-Lite® HTRF Assay
Assays were conducted in black low volume 384-well polystyrene plates (Greiner 784076-25) in a final volume of 10 μL. Test compounds were first serially diluted in DMSO and 100 nl added to the plate wells before the addition of other reaction components. The final concentration of DMSO was 1%. Tag-lite® Adenosine A2A labeled cells (CisBio C1TT1A2A) were diluted 1:5 into Tag-lite buffer (CisBio LABMED) and spun 1200 g for 5 mins. The pellet was resuspended at a volume 10.4× the initial cell suspension volume in Tag-lite buffer, and Adenosine A2A Receptor Red antagonist fluorescent ligand (CisBio L0058RED) added at 12.5 nM final concentration. 10 ul of the cell and ligand mix was added to the assay wells and incubated at room temperature for 45 minutes before reading on a PHERAstar FS plate reader (BMG Labtech) with HTRF 337/620/665 optical module. Percent binding of the fluorescent ligand was calculated; where 100 nM of A2A antagonist control ZM 241385 (Tocris 1036) displaces the ligand 100% and 1% DMSO has 0% displacement. The % binding data versus the log of the inhibitor concentration was fitted to a one-site competitive binding model (GraphPad Prism version 7.02) where the ligand constant=12.5 nM and the ligand Kd=1.85 nM.
Background: TR-FRET usually uses a lanthanide donor and a delayed reading to cut background.

human adenosine A2B receptor, sequence (P29275 whole entry): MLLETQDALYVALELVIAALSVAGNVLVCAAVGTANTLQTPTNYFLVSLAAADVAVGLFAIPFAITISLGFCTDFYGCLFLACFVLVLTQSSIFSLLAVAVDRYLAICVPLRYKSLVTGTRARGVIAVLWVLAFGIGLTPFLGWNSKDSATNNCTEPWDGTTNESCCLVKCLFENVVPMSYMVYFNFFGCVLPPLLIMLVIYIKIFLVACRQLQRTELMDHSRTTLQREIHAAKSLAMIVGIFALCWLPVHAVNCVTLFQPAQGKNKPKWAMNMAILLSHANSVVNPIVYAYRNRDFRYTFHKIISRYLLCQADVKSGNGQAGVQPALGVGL
Adenosine A2A, sequence (P29274 whole entry): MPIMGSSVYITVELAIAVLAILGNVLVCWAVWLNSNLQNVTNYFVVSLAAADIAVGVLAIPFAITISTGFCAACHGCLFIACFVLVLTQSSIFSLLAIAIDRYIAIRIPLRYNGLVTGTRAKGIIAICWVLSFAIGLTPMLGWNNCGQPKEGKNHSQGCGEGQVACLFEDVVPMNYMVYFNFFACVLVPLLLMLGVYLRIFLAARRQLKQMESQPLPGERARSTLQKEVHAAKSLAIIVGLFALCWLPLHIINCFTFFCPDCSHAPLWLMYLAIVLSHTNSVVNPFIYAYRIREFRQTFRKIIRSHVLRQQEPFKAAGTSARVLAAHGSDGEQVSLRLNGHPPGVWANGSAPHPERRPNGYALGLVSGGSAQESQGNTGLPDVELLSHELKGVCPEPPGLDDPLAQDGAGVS

With `N#Cc1cccc(-c2nc(N)n3nc(Cn4nnnc4-c4cccnc4)nc3c2-c2ccncn2)c1` [Example 53, 3-(5-amino-2-((5-(pyridin-3-yl)-1H-tetrazol-1-yl)methyl)-8-(pyrimidin-4-yl)-[1,2,4]triazolo[1,5-c]pyrimidin-7-yl)benzonitrile], the EC50 in assay [1] is at most 10 nM. Further, the Ki on Adenosine A2A was at most 10 nM.
Take `N#Cc1cccc(-c2nc(N)n3nc(Cn4nnnc4-c4ccncc4)nc3c2-c2ccncn2)c1` [Example 54, 3-(5-amino-2-((5-(pyridin-4-yl)-1H-tetrazol-1-yl)methyl)-8-(pyrimidin-4-yl)-[1,2,4]triazolo[1,5-c]pyrimidin-7-yl)benzonitrile]: the EC50 in assay [1] is at most 10 nM. In addition, the Ki at Adenosine A2A is at most 10 nM.
For `Cc1cccc(COc2nc3c(-c4ccc(=O)n(C)c4)c(-c4cccc(C#N)c4)nc(N)n3n2)n1` [Example 55, 3-(5-amino-8-(1-methyl-6-oxo-1,6-dihydropyridin-3-yl)-2-((6-methylpyridin-2-yl)methoxy)-[1,2,4]triazolo[1,5-c]pyrimidin-7-yl)benzonitrile], the EC50 in assay [1] lay within 10 to 100 nM. For the same compound, at Adenosine A2A, the Ki was at most 10 nM.
Turning to `Cc1cccc(COc2nc3c(-c4ccncc4C)c(-c4cccc(C#N)c4)nc(N)n3n2)n1` [Example 57, 3-(5-amino-2-((6-methylpyridin-2-yl)methoxy)-8-(3-methylpyridin-4-yl)-[1,2,4]triazolo[1,5-c]pyrimidin-7-yl)benzonitrile], the EC50 in assay [1] lay within 10 to 100 nM. The Ki at Adenosine A2A is at most 10 nM.
Consider `Cc1cc(-c2c(-c3cccc(C#N)c3)nc(N)n3nc(OCc4cccc(C)n4)nc23)cc(C)n1` [Example 58, 3-(5-amino-8-(2,6-dimethylpyridin-4-yl)-2-((6-methylpyridin-2-yl)methoxy)-[1,2,4]triazolo[1,5-c]pyrimidin-7-yl)benzonitrile], for which the EC50 in assay [1] lay within 100 to 1000 nM. For the same compound, at Adenosine A2A, the Ki was at most 10 nM.
The like results for `COc1cc(-c2c(-c3cccc(C#N)c3)nc(N)n3nc(OCc4cccc(C)n4)nc23)cc(C)n1` [Example 59, 3-(5-amino-8-(2-methoxy-6-methylpyridin-4-yl)-2-((6-methylpyridin-2-yl)methoxy)-[1,2,4]triazolo[1,5-c]pyrimidin-7-yl)benzonitrile] were, in that order, 10 to 100 nM and at most 10 nM.
Take `Cc1cccc(CNc2nc3c(-c4ccncn4)c(-c4cccc(C#N)c4)nc(N)n3n2)n1` [Example 65, 3-(5-amino-2-(((6-methylpyridin-2-yl)methyl)amino)-8-(pyrimidin-4-yl)-[1,2,4]triazolo[1,5-c]pyrimidin-7-yl)benzonitrile]: the EC50 in assay [1] is 10 to 100 nM. On Adenosine A2A, the Ki is at most 10 nM.
Consider `Cc1cccc(CNc2nc3c(-c4ccc(=O)n(C)n4)c(-c4cccc(C#N)c4)nc(N)n3n2)n1` [Example 67, 3-(5-amino-8-(1-methyl-6-oxo-1,6-dihydropyridazin-3-yl)-2-(((6-methylpyridin-2-yl)methyl)amino)-[1,2,4]triazolo[1,5-c]pyrimidin-7-yl)benzonitrile], for which the EC50 in assay [1] lay in the range of 10 to 100 nM. Also, the Ki on Adenosine A2A was at most 10 nM.
With `Cc1cccc(CNc2nc3c(-c4ccncc4C)c(-c4cccc(C#N)c4)nc(N)n3n2)n1` [Example 68, 3-(5-amino-2-(((6-methylpyridin-2-yl)methyl)amino)-8-(3-methylpyridin-4-yl)-[1,2,4]triazolo[1,5-c]pyrimidin-7-yl)benzonitrile], in assay [1], the EC50 was at most 10 nM. In addition, the Ki on Adenosine A2A is at most 10 nM.
With `Cc1cc(-c2c(-c3cccc(C#N)c3)nc(N)n3nc(NCc4cccc(C)n4)nc23)cc(C)n1` [Example 69, 3-(5-amino-8-(2,6-dimethylpyridin-4-yl)-2-(((6-methylpyridin-2-yl)methyl)amino)-[1,2,4]triazolo[1,5-c]pyrimidin-7-yl)benzonitrile], the EC50 in assay [1] is above 1000 nM. Also, the Ki on Adenosine A2A is at most 10 nM.
For the compound `COc1cc(-c2c(-c3cccc(C#N)c3)nc(N)n3nc(NCc4cccc(C)n4)nc23)cc(C)n1` [Example 70, 3-(5-amino-8-(2-methoxy-6-methylpyridin-4-yl)-2-(((6-methylpyridin-2-yl)methyl)amino)-[1,2,4]triazolo[1,5-c]pyrimidin-7-yl)benzonitrile], the EC50 in assay [1] lay within 100 to 1000 nM. Also, the Ki at Adenosine A2A was at most 10 nM.
